Square brackets hold non-standard residues; d marks the D form. Peptide text beside a SMILES is read from it.
Columns and labels:
MRSA (ATCC BAA-1556) = test system: MRSA (ATCC BAA-1556); parameters: MIC MRSA: unit not given beside the values; conditions: supplementary csv, unit not given
[1] = test system: K. pneumoniae (ATCC BAA-1705); conditions: supplementary csv, unit not given
[2] = test system: P. aeruginosa (ATCC 27883); parameters: MIC P. aeruginosa: unit not given beside the values; conditions: supplementary csv, unit not given
E. coli (ATCC 25922) = test system: E. coli (ATCC 25922); parameters: MIC E. coli: unit not given beside the values; conditions: supplementary csv, unit not given
[3] = test system: human red blood cells (hRBCs); conditions: red cells of human, 2 h
Experimental: The hemolytic activity of all the cyclic peptides was determined using human red blood cells (hRBC) purchased from BioIVT, USA. […] Peptide-induced hemolysis was tested in triplicate by mixing 75 μL of the peptide solution in PBS (two-fold serial dilution) with 75 μL of a 4% (v/v) hRBC suspension in phosphate-buffered saline. The plates were incubated for 2 h at 37 °C without agitation and centrifuged at 1000g for 10 min. Aliquots (100 μL) of the supernatant were transferred to 96-well plates, where hemoglobin release was measured spectrophotometrically at 567 nm. Percent hemolysis was calculated by the following formula: [drawing 1] where A represents the absorbance of the peptide sample at 567 nm and A0 and At represent zero percent and 100% hemolysis determined in phosphate-buffered saline and 1% Triton X-100, respectively.

SMILES | MIC MRSA (MRSA (ATCC BAA-1556)) | MIC K. pneumoniae [1] | MIC P. aeruginosa [2] | MIC E. coli (E. coli (ATCC 25922)) | HC50 [3]
N=C(N)NCCC[C@@H]1NC(=O)[C@H](CCCNC(=N)N)NC(=O)[C@H](Cc2c[nH]c3ccccc23)NC(=O)[C@H](Cc2c[nH]c3ccccc23)NC(=O)[C@H](Cc2c[nH]c3ccccc23)NC(=O)[C@H](Cc2c[nH]c3ccccc23)NC1=O [2b, [R2W4]] (cyclo(RRWWWW); ring closure inferred) | 64 | 256 | 256 | 256 | 85 µg/mL
N=C(N)NCCC[C@@H]1NC(=O)[C@H](CCCNC(=N)N)NC(=O)[C@H](Cc2c[nH]c3ccccc23)NC(=O)[C@H](Cc2c[nH]c3ccccc23)NC(=O)[C@H](Cc2c[nH]c3ccccc23)NC(=O)[C@H](CCCNC(=N)N)NC1=O [3a, [R3W3]] (cyclo(WWWRRR); ring closure inferred) | 16 | 64 | 128 | 32 | 155 µg/mL
N=C(N)NCCC[C@@H]1NC(=O)[C@H](CCCNC(=N)N)NC(=O)[C@H](Cc2c[nH]c3ccccc23)NC(=O)[C@H](Cc2c[nH]c3ccccc23)NC(=O)[C@H](Cc2c[nH]c3ccccc23)NC(=O)[C@H](Cc2c[nH]c3ccccc23)NC(=O)[C@H](CCCNC(=N)N)NC1=O [3b, [R3W4]] (cyclo(RRRWWWW); ring closure inferred) | 8 | 64 | 256 | 32 | 105 µg/mL
N=C(N)NCCC[C@@H]1NC(=O)[C@H](CCCNC(=N)N)NC(=O)[C@H](Cc2c[nH]c3ccccc23)NC(=O)[C@H](Cc2c[nH]c3ccccc23)NC(=O)[C@H](Cc2c[nH]c3ccccc23)NC(=O)[C@H](Cc2c[nH]c3ccccc23)NC(=O)[C@H](Cc2c[nH]c3ccccc23)NC(=O)[C@H](Cc2c[nH]c3ccccc23)NC(=O)[C@H](CCCNC(=N)N)NC1=O [3d, [R3W6]] | 64 | 128 | 256 | 64 | 65 µg/mL
N=C(N)NCCC[C@@H]1NC(=O)[C@H](CCCNC(=N)N)NC(=O)[C@H](Cc2c[nH]c3ccccc23)NC(=O)[C@H](Cc2c[nH]c3ccccc23)NC(=O)[C@H](Cc2c[nH]c3ccccc23)NC(=O)[C@H](Cc2c[nH]c3ccccc23)NC(=O)[C@H](Cc2c[nH]c3ccccc23)NC(=O)[C@H](Cc2c[nH]c3ccccc23)NC(=O)[C@H](Cc2c[nH]c3ccccc23)NC(=O)[C@H](CCCNC(=N)N)NC1=O [3e, [R3W7]] (cyclo(RRRWWWWWWW)) | 256 | 64 | 256 | 256 | 60 µg/mL
N=C(N)NCCC[C@H]1NC(=O)[C@H](Cc2c[nH]c3ccccc23)NC(=O)[C@H](Cc2c[nH]c3ccccc23)NC(=O)[C@H](Cc2c[nH]c3ccccc23)NC(=O)[C@H](Cc2c[nH]c3ccccc23)NC(=O)[C@@H](CCCNC(=N)N)NC(=O)[C@@H](CCCNC(=N)N)NC(=O)[C@@H](CCCNC(=N)N)NC1=O [4a, [dR4W4]] (cyclo([dR][dR][dR][dR]WWWW)) | 8 | 64 | 64 | 16 | 110 µg/mL
N=C(N)NCCC[C@@H]1NC(=O)[C@H](CCCNC(=N)N)NC(=O)[C@H](CCCNC(=N)N)NC(=O)[C@H](Cc2c[nH]c3ccccc23)NC(=O)[C@H](Cc2c[nH]c3ccccc23)NC(=O)[C@H](Cc2c[nH]c3ccccc23)NC(=O)[C@H](Cc2c[nH]c3ccccc23)NC(=O)[C@H](Cc2c[nH]c3ccccc23)NC(=O)[C@H](CCCNC(=N)N)NC1=O [4b, [R4W5]] | 8 | 128 | 128 | 64 | 100 µg/mL
N=C(N)NCCC[C@@H]1NC(=O)[C@H](CCCNC(=N)N)NC(=O)[C@H](CCCNC(=N)N)NC(=O)[C@H](Cc2c[nH]c3ccccc23)NC(=O)[C@H](Cc2c[nH]c3ccccc23)NC(=O)[C@H](Cc2c[nH]c3ccccc23)NC(=O)[C@H](Cc2c[nH]c3ccccc23)NC(=O)[C@H](Cc2c[nH]c3ccccc23)NC(=O)[C@H](Cc2c[nH]c3ccccc23)NC(=O)[C@H](CCCNC(=N)N)NC1=O [4c, [R4W6]] | 128 | 256 | 128 | 128 | 75 µg/mL
N=C(N)NCCC[C@@H]1NC(=O)[C@H](CCCNC(=N)N)NC(=O)[C@H](CCCNC(=N)N)NC(=O)[C@H](Cc2c[nH]c3ccccc23)NC(=O)[C@H](Cc2c[nH]c3ccccc23)NC(=O)[C@H](Cc2c[nH]c3ccccc23)NC(=O)[C@H](Cc2c[nH]c3ccccc23)NC(=O)[C@H](Cc2c[nH]c3ccccc23)NC(=O)[C@H](Cc2c[nH]c3ccccc23)NC(=O)[C@H](Cc2c[nH]c3ccccc23)NC(=O)[C@H](CCCNC(=N)N)NC1=O [4d, [R4W7]] (cyclo(RRRRWWWWWWW)) | 256 | 256 | >256 | 128 | 60 µg/mL
N=C(N)NCCC[C@@H]1NC(=O)[C@H](CCCNC(=N)N)NC(=O)[C@H](CCCNC(=N)N)NC(=O)[C@H](Cc2c[nH]c3ccccc23)NC(=O)[C@H](Cc2c[nH]c3ccccc23)NC(=O)[C@H](Cc2c[nH]c3ccccc23)NC(=O)[C@H](Cc2c[nH]c3ccccc23)NC(=O)[C@H](Cc2c[nH]c3ccccc23)NC(=O)[C@H](Cc2c[nH]c3ccccc23)NC(=O)[C@H](CCCNC(=N)N)NC(=O)[C@H](CCCNC(=N)N)NC1=O [5c, [R5W6]] (cyclo(RRRRRWWWWWW)) | >256 | >256 | >256 | >256 | 140 µg/mL
N=C(N)NCCC[C@@H]1NC(=O)[C@H](CCCNC(=N)N)NC(=O)[C@H](CCCNC(=N)N)NC(=O)[C@H](Cc2c[nH]c3ccccc23)NC(=O)[C@H](Cc2c[nH]c3ccccc23)NC(=O)[C@H](Cc2c[nH]c3ccccc23)NC(=O)[C@H](Cc2c[nH]c3ccccc23)NC(=O)[C@H](Cc2c[nH]c3ccccc23)NC(=O)[C@H](Cc2c[nH]c3ccccc23)NC(=O)[C@H](Cc2c[nH]c3ccccc23)NC(=O)[C@H](CCCNC(=N)N)NC(=O)[C@H](CCCNC(=N)N)NC1=O [5d, [R5W7]] (cyclo(RRRRRWWWWWWW)) | >256 | >256 | >256 | >256 | 115 µg/mL
N=C(N)NCCC[C@@H]1NC(=O)[C@H](CCCNC(=N)N)NC(=O)[C@H](CCCNC(=N)N)NC(=O)[C@H](CCCNC(=N)N)NC(=O)[C@H](Cc2c[nH]c3ccccc23)NC(=O)[C@H](Cc2c[nH]c3ccccc23)NC(=O)[C@H](Cc2c[nH]c3ccccc23)NC(=O)[C@H](Cc2c[nH]c3ccccc23)NC(=O)[C@H](Cc2c[nH]c3ccccc23)NC(=O)[C@H](Cc2c[nH]c3ccccc23)NC(=O)[C@H](CCCNC(=N)N)NC(=O)[C@H](CCCNC(=N)N)NC1=O [6c, [R6W6]] (cyclo(RRRRRRWWWWWW)) | 16 | 64 | 128 | 64 | 170 µg/mL
N=C(N)NCCC[C@@H]1NC(=O)[C@H](CCCNC(=N)N)NC(=O)[C@H](CCCNC(=N)N)NC(=O)[C@H](CCCNC(=N)N)NC(=O)[C@H](Cc2c[nH]c3ccccc23)NC(=O)[C@H](Cc2c[nH]c3ccccc23)NC(=O)[C@H](Cc2c[nH]c3ccccc23)NC(=O)[C@H](Cc2c[nH]c3ccccc23)NC(=O)[C@H](Cc2c[nH]c3ccccc23)NC(=O)[C@H](Cc2c[nH]c3ccccc23)NC(=O)[C@H](Cc2c[nH]c3ccccc23)NC(=O)[C@H](CCCNC(=N)N)NC(=O)[C@H](CCCNC(=N)N)NC1=O [6d, [R6W7]] (cyclo(RRRRRRWWWWWWW)) | 64 | 256 | >256 | 128 | 85 µg/mL
N=C(N)NCCC[C@@H]1NC(=O)[C@H](CCCNC(=N)N)NC(=O)[C@H](CCCNC(=N)N)NC(=O)[C@H](CCCNC(=N)N)NC(=O)[C@H](Cc2c[nH]c3ccccc23)NC(=O)[C@H](Cc2c[nH]c3ccccc23)NC(=O)[C@H](Cc2c[nH]c3ccccc23)NC(=O)[C@H](Cc2c[nH]c3ccccc23)NC(=O)[C@H](CCCNC(=N)N)NC(=O)[C@H](CCCNC(=N)N)NC(=O)[C@H](CCCNC(=N)N)NC1=O [7a, [R7W4]] (cyclo(RRRRRRRWWWW)) | 16 | 64 | 32 | 32 | 190 µg/mL

Reference: publication PMC9743092, “Membrane-Active Cyclic Amphiphilic Peptides: Broad-Spectrum Antibacterial Activity Alone and in Combination with Antibiotics” (Journal of Medicinal Chemistry, 2022)
